Data on two compounds can be found in patent US8993562B2, “Imidazo[1,2-b]pyridazines, processes, uses, intermediates and compositions” (Ferrer Internacional, S.A., priority 2006, dated 2015).

The target of one test is T1, GABAA receptor.
T1 construct: IC50; other: compounds of the invention; estimated from Ki by Cheng-Prusoff equation, radioligand 1 nM
The experiment in a line: Comparative assay: IC50 values estimated from Cheng-Prusoff equation. Format: binding, rat. As to conditions: compounds of the invention; estimated from Ki by Cheng-Prusoff equation, radioligand 1 nM. The method, then: All these compounds have in common that at 3-position, the imidazo[1,2-b]pyradizine ring have an acetamide. The rest of compounds disclosed in WO89/01333 are not structurally so related with the compounds of the present invention.
The IC50 values were estimated from Cheng-Prusoff equation (Cheng Y. C. and Prusoff W. H.; Biochem. Pharmacol. 22, 3099-3108, 1973)
[formula] where, Ki is determined for each one of the compounds of the invention as described above (section (a)). [RL*]: radiolabeled ligand concentration (1 nM). Kd: affinity constant (cerebellum 1.34 nM/spinal cord 1.19 nM)

A further test relates to male CD1 mice. Description: In vivo predictive sedation-hypnosis test (traveled distance). To be noted: Mus musculus, ip, 0.5 h, 98.0 μmol/kg intraperitoneal, traveled distance over 30 min versus control, read-out: % inhib motor activity.
For another test, the system named is α1-GABAA receptor. The experiment in a line: Ligand-binding assay, radiolabeled flumazenil competition, cerebellum membranes. As to conditions: rat cerebellum membranes, radiolabeled flumazenil 1 nM. How it is done:
a) Ligand-binding Assays. Determination of the Affinity of Test Compounds for α1- and α2-GABAA Receptor
Male Sprague-Dawley rats weighing 200-250 g at the time of experiment were used. After decapitation of the animal, the cerebellum (tissue that mostly contains α1-GABAA receptor) and spinal cord (tissue that mostly contains α2-GABAA receptor) were removed. The membranes were prepared according to the method by J. Lameh et al. (Prog. Neuro-Psychopharmacol. Biol. Psychiatry, 24, 979-991, 2000) and H. Noguchi et al. (Eur J Pharm, 434, 21-28, 2002) with slight modifications. Once the tissues weighed, they were suspended in 50 mM Tris.HCl (pH 7.4), 1:40 (v/v), or sucrose 0.32 M in the case of spinal cord, homogenized and then centrifuged at 20000 g for 10 minutes at 7° C. The resulting pellet was resuspended under the same conditions and centrifuged again. The pellet was finally resuspended on a minimum volume and kept at −80° C. overnight. A slight modification was used in the case of spinal cord at the first centrifugation step. Centrifugation speed was at 1000 g and the supernatant was collected instead of discarded as in cerebellum. Then, supernatant was centrifuged at 20000 g and resuspended twice more under the same conditions described above for cerebellum. On the next day, the process was repeated until the final pellet was resuspended at a ratio of 1:10 (v/v) in the case of cerebellum and at a ratio of 1:5 (v/v) in the case of spinal cord.
Affinity was determined by competitive tests using radiolabeled flumazenil as ligand. The tests were performed according to the methods described by S. Arbilla et al. (Eur. J. Pharmacol., 130, 257-263, 1986); and Y. Wu et al. (Eur. J. Pharmacol., 278, 125-132, 1995) using 96-well microtiter plates. The membranes containing the study receptors, flumazenil (radiolabeling at a final concentration of 1 nM) and ascending concentrations of test compounds (in a total volume of 230 μl in 50 mM [pH 7.4] Tris.HCl buffer) were incubated. Simultaneously, the membranes were only incubated with the radiolabeled flumazenil (total binding, 100%) and in the presence of an elevated concentration of unradiolabeled flumazenil (non-specific binding, % estimation of radiolabeled ligand). The reactions started on adding the radiolabeled ligand followed by incubation for 60 minutes at 4° C. At the end of the incubation period, 200 μl of reaction were transferred to a multiscreen plate (Millipore) and filtered using a vacuum manifold and then washed three times with cold test buffer. The multiscreen plates were equipped with a GF/B filter that retained the membranes containing the receptors and the radiolabeled ligand which had been bound to the receptors. After washing, the plates were left till dry. Once dried, scintillation liquid was added and left under stirring overnight. The next day the plates were counted using a Perkin-Elmer Microbeta scintillation counter.
For analysis of the results the percentage of specific binding for every concentration of test compound was calculated as follows: specific binding−(X−N/T−N)×100 where, X: amount of bound ligand for every concentration of compound. T: total binding, maximum amount bound to the radiolabeled ligand. N: non-specific binding, amount of radiolabeled ligand bound in a non-specific way irrespective of the receptor used.
Every concentrations of compound were tested in triplicate and their mean values were used to determine the experimental values of % specific binding versus the concentration of compound. Affinity data are expressed as % inhibition at 10^−5M and 10^−7M concentrations.

Usually IC50 stands for the concentration that inhibits the measured activity by half.

In the case of `Cc1ccc(-c2nc3ccc(C)nn3c2CC(=O)Nc2ccccn2)cc1` [Example 88, 2-(6-Methyl-2-p-tolyl-imidazo[1,2-b]pyridazin-3-yl)-N-pyridin-2-yl-acetamide], the IC50 at GABAA receptor is 13 nM. Besides, the inhibition in vivo at 98 µmol/kg with male CD1 mice was 88.5%. The “% inhib 10^−5 M, affinity for the α1-subunit of the GABAA receptor” value in the test with α1-GABAA receptor (10^−5 M) stood at 100.2%. Moreover, in the test on α1-GABAA receptor (10^−7 M), the “% inhib 10^−7 M, affinity for the α1-subunit of the GABAA receptor” value is recorded as 83.9%.

On to `Cc1ccc(-c2nc3ccc(C)nn3c2CC(=O)Nc2nncs2)cc1` [Example 98, 2-(6-Methyl-2-p-tolyl-imidazo[1,2-b]pyridazin-3-yl)-N-[1,3,4]thiadiazol-2-yl-acetamide], for which the IC50 at GABAA receptor is 12.2 nM.
